This note sets out measurements from BindingDB's records for doi:10.1016/S0960-894X(01)80380-2 (1994).

The nature of the test: Inhibition of ADP-mediated platelet aggregation in human gel-filtered platelets.
What is called IC50 is the concentration that gives 50% inhibition. Higher therefore signals lower potency. `O=C(O)CCNC(=O)c1ccnc(C(=O)NCCC2CCNCC2)c1` [3-{[2-(2-Piperidin-4-yl-ethylcarbamoyl)-pyridine-4-carbonyl]-amino}-propionic acid] showed an IC50 of 1.6 µM.

Consider `O=C(O)CCN1Cc2ccc(C(=O)NCCC3CCNCC3)cc2C1=O` [3-[1-Oxo-6-(2-piperidin-4-yl-ethylcarbamoyl)-1,3-dihydro-isoindol-2-yl]-propionic acid], for which half-maximal inhibition (IC50) required 10 µM.

`O=C(O)CCNC(=O)c1cccc(C(=O)NCCC2CCNCC2)c1` [3-[3-(2-Piperidin-4-yl-ethylcarbamoyl)-benzoylamino]-propionic acid] registered a half-inhibitory concentration (IC50) of 0.53 µM.

Compound `O=C(O)CCNC(=O)c1cncc(C(=O)NCCC2CCNCC2)c1` [3-{[5-(2-Piperidin-4-yl-ethylcarbamoyl)-pyridine-3-carbonyl]-amino}-propionic acid] had an IC50 of 2 µM.

The compound `O=C(O)CCNC(=O)c1cc(C(=O)NCCC2CCNCC2)ccn1` [3-{[4-(2-Piperidin-4-yl-ethylcarbamoyl)-pyridine-2-carbonyl]-amino}-propionic acid] had a concentration for half-maximal inhibition (IC50) of 1.1 µM.

Take `O=C(O)CCNC(=O)c1cccc(C(=O)NCCC2CCNCC2)n1` [3-{[6-(2-Piperidin-4-yl-ethylcarbamoyl)-pyridine-2-carbonyl]-amino}-propionic acid]: the IC50 came out at 300 µM.
